Literature values in paper PMC10761933, “Acquired and intrinsic resistance to vemurafenib in BRAF^V600E ‐driven melanoma brain metastases” (FEBS Open Bio, 2023).

How the values were obtained:
[1] = system: melanoma brain metastases; settings: MBM patients, treatment alone; cited from earlier work
[2] = WT mice; cited from earlier work
A375 cells = settings: read-out: IC50 against A375 cells; cited from earlier work
[3] = mice; stated without reference; cited from earlier work

SMILES | median overall survival [1] | brain–plasma ratio [2] | IC50 (A375 cells) | t max of oral elacridar [3]
CC(C)(C)c1nc(-c2cccc(NS(=O)(=O)c3c(F)cccc3F)c2F)c(-c2ccnc(N)n2)s1 [dabrafenib] | 7 months | approximately 0.1 | 4 nM | 
COc1cc2c(cc1OC)CN(CCc1ccc(NC(=O)c3cccc4c(=O)c5cccc(OC)c5[nH]c34)cc1)CC2 [elacridar] |  |  |  | ~4 h
COC(=O)N[C@@H](C)CNc1nccc(-c2cn(C(C)C)nc2-c2cc(Cl)cc(NS(C)(=O)=O)c2F)n1 [encorafenib] |  | roughly 0.004 | 4 nM | 
